These results are taken from patent US11351151B2, “Compound having anticancer activity and preparation method and application” (3D Medicines (Beijing) Co., Ltd., priority 2016, dated 2022).

Common to all, as to format: cell-based
One experiment has as its system NCl-H1703. Briefly: Cell proliferation assay (Alamar Blue). The note with it: 144 h; NCl-H1703 (lung cancer cells); 6 days. The gist of the method: (§1)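 Growth inhibition is measured after six days of drug exposure using resazurin (AlamarBlue) fluorescence at 560/590 nm. Dose–response curves, typically four-parameter, yield IC50 values.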
(In general: Alamar Blue is a resazurin reagent that responds to reducing activity.)

The test system of the next experiment is SNU449. Briefly: Cell proliferation assay (Alamar Blue). The note with it: Homo sapiens, SNU-449, 144 h; SNU449 liver cancer cell line; 6 days. The gist of the method: as §1
In another experiment the test system is CCRF-CEM. Briefly: Cell proliferation assay (Alamar Blue). The note with it: Homo sapiens, 144 h; CCRF-CEM tumor cell line; 6 days. The essentials:
as §1

In a further experiment the test system is HUH6. Briefly: Cell proliferation assay (Alamar Blue). The note with it: Homo sapiens, HuH-6, 144 h; HUH6 liver cancer cell line; 6 days. The gist of the method: as §1
The next experiment has as its system SNU182. Briefly: Cell proliferation assay (Alamar Blue). The conditions noted are these: Homo sapiens, SNU-182, 144 h; SNU182 liver cancer cell line; 6 days. The essentials:
as §1

A further experiment deals with SNU398. Briefly: Cell proliferation assay (Alamar Blue). The note with it: Homo sapiens, SNU-398, 144 h; SNU398 liver cancer cell line; 6 days. The essentials:
as §1

The next experiment deals with LC-2-ad. Briefly: Cell proliferation assay (Alamar Blue). The note with it: Homo sapiens, 144 h; LC-2-ad tumor cell line; 6 days. The essentials:
as §1

The test system of experiment [1] is 54 commercial tumor cell lines. Briefly: Cell proliferation assay (Alamar Blue), summary over the panel. The note with it: in almost all tumor cell lines. The method, then: 1. Instruments and Materials • Thermo 311 CO2 incubator; Haier biosafety cabinet; Molecular Devices microplate reader; Xiangyi brand L530 desktop low speed centrifuge; Olympus IX51 inverted fluorescence microscope, DMEM, RPMI 1640, MEM, DMEM/F12 1:1 medium, Fetal bovine serum, 0.25% trypsin solution, phosphate buffer (Thermo Fisher Shanghai Co., Ltd.); sigma dimethyl sulfoxide (DMSO), resazurin; 54 commercial tumor cell lines (including 26 liver cancer cell lines). Experimental drugs: compounds 1-12 and active drug Linifanib; chemotherapeutic drug Doxorubicin (HY-15142; Shanghai Qianyuan Biomedical Technology Co., Ltd.).
2. Experimental Methods • 2.1 Cultivation of different cell lines • 54 cell lines were cultured in a culture medium containing fetal bovine serum and placed in a 5% CO 2 incubator at 37° C. for incubation. The cells were all grown in an adherent state, and the growth was observed under an inverted microscope, and subculture was performed when the cell confluence rate reached 80%-90%. The proportion and quantity of passage were determined by experimental needs. The ratio of subculture of this cell line was generally 1:2^˜1:3. • 2.2 inhibition effect on the proliferation of different tumor cell lines • Cell test: 54 cell lines in logarithmic growth phase were inoculated in 96-well culture plates at 500^˜1×10^4/well (the optimal seeding density of each cell line was determined in pre-experiment), After incubating at 37° C. for 4 h in a 5% CO2 humidification incubator, added 10 μL of compounds 1-12 or Linifanib to each well, and tested 9 drug concentration gradients for each compound (diluted from the highest concentration of the test by 3.16 times). The solubility of each compound was different at a starting concentration of 30 or 100 μM, respectively. The QC reference compound Doxorubicin was added simultaneously to each cell line test, and the final drug concentrations were 10, 3.16, 1, 0.31, 0.1, 0.03, 0.01, 0.003, and 0.001 μM, respectively. In addition, a positive control group (100% inhibition) and a negative control group (0% inhibition) were set at the same time. The drug group was repeated for 2 wells per concentration, and the positive control group and the negative control group were repeated for 6 wells. After the culture was continued for 6 days in the incubator, AlamarBlue test operation was followed; • AlamarBlue test procedure: Incubated with 10 μL of AlamarBlue reagent per well for 1-4 h, shook for 1-2 min, MD microplate reader EX: 560 nm, EM: 590 nm wavelength to measure fluorescence, recorded the results, calculated the cell inhibition rate of the compound of the invention. […]

With `Cc1ccc(F)c(NC(=O)Nc2ccc(-c3cccc4c3c(N)nn4C(=O)C[C@H](N)C(=O)N[C@@H](CCC(=O)O)C(=O)O)cc2)c1` [Compound 1], the 50% inhibitory concentration (IC50) was found to be 0.04 µM in the experiment on NCl-H1703; 5.21 µM in the experiment with SNU449; 2.5 µM in the experiment with CCRF-CEM; 0.13 µM in the experiment on HUH6; 19.9 µM in the experiment on SNU182; 2.61 µM in the experiment on SNU398. The same molecule displayed an IC50 in the experiment with LC-2-ad of 8.89 µM. Moreover, the “IC50 values compared with Linifanib” value in experiment [1] is “close to those of Linifanib”.

Turning to `Cc1ccc(F)c(NC(=O)Nc2ccc(-c3cccc4c3c(N)nn4C(=O)C[C@H](N)C(=O)O)cc2)c1` [Compound 10], the IC50 worked out at 0.021 µM with NCl-H1703; 4.91 µM in the experiment with SNU449; 1.74 µM in the experiment with CCRF-CEM; 0.15 µM with HUH6; 13.3 µM in the experiment with SNU182; 2.99 µM with SNU398. In the experiment with LC-2-ad, this molecule yielded an IC50 of 6.38 µM. In experiment [1], the “IC50 values compared with Linifanib” value was “close to those of Linifanib”.

With `Cc1ccc(F)c(NC(=O)Nc2ccc(-c3cccc4c3c(N)nn4C(=O)C[C@H](N)C(=O)N[C@@H](CCC(=O)N[C@@H](CCC(=O)N[C@@H](CCC(=O)N[C@@H](CCC(=O)O)C(=O)O)C(=O)O)C(=O)O)C(=O)O)cc2)c1` [Compound 2], the IC50 is 0.063 µM in the experiment on NCl-H1703; 8.39 µM with SNU449; 6.33 µM in the experiment on CCRF-CEM; 0.82 µM with HUH6; 32.1 µM in the experiment on SNU182; 6.37 µM with SNU398. Also, the IC50 with LC-2-ad stood at 13.5 µM. In addition, in experiment [1], the “IC50 values compared with Linifanib” value is “close to those of Linifanib”.

For the molecule `Cc1ccc(F)c(NC(=O)Nc2ccc(-c3cccc4c3c(N)nn4C(=O)C[C@H](N)C(=O)N[C@@H](CCC(=O)N[C@@H](CCC(=O)N[C@@H](CCC(=O)N[C@@H](CCC(=O)N[C@@H](CCC(=O)N[C@@H](CCC(=O)N[C@@H](CCC(=O)N[C@@H](CCC(=O)N[C@@H](CCC(=O)O)C(=O)O)C(=O)O)C(=O)O)C(=O)O)C(=O)O)C(=O)O)C(=O)O)C(=O)O)C(=O)O)cc2)c1` [Compound 3], the IC50 in the experiment with NCl-H1703 amounted to 0.15 µM; with SNU449 it was 14.6 µM; in the experiment with CCRF-CEM, 10.2 µM; with HUH6 it was 1.55 µM; with SNU182, 54.2 µM; with SNU398, 17.1 µM. This molecule came in with a half-maximal inhibitory concentration (IC50) with LC-2-ad of 22.4 µM. Also, the “IC50 values compared with Linifanib” value in experiment [1] is “close to those of Linifanib”.

A word on the IC50: it is the concentration at which inhibition is half-maximal. A low value points to greater potency in that assay.
